Among the targets are Cytochrome P450 3A4 (Homo sapiens, UniProt P08684); Cytochrome P450 2C9 (Homo sapiens, UniProt P11712); Cytochrome P450 2D6 (Homo sapiens, UniProt P10635).
A further series concerns Streptococcus. The series can be described thus: GAS UMAA2166 growth inhibition – luminescence, BacTiterGlo, counter-screen for streptokinase expression inhibitor project, dose response (AID 1915).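 Note: potency for reduction of bacterial viability or growth.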 Type of series: functional, organism-based. (Counterscreens check selectivity or assay interference.)
The subject of series [1] is Streptococcus sp. 'group A'. The series can be described thus: Streptococcus pyogenes SK(-)GAS viability under kanamycin – luminescence, BacTiterGlo, confirmation, counter-screen for streptokinase expression inhibitor project, dose response (AID 1900). Type of series: functional, organism-based.
Another series concerns the target T1, Streptokinase A (Streptococcus pyogenes serotype M1, UniProt P10520).
T1 sequence (P10520 whole entry): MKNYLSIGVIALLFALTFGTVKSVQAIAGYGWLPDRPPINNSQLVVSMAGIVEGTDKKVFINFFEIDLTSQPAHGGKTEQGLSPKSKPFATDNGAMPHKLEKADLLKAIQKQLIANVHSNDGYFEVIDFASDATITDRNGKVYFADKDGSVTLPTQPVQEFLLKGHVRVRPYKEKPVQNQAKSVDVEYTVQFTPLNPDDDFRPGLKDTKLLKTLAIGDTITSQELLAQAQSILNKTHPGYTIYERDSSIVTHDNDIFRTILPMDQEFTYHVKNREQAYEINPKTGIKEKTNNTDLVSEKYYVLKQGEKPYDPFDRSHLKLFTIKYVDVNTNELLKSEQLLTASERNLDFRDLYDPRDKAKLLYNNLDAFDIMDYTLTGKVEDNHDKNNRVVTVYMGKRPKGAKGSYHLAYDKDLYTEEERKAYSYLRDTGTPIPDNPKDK
As to the kind of experiment: viability-normalized secreted streptokinase activity reduction – plasminogen activation absorbance, OD405, dose response (AID 1914).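 Note: secreted streptokinase activity via plasminogen activation per viability signal from cell pellet.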 Format: functional, Streptococcus pyogenes M1 GAS.

The target of another series is Cytochrome P450 2C19 (Homo sapiens, UniProt P33261). The series can be described thus: Cytochrome panel assay with activity outcomes. Panel member name: p450-cyp2c19 Compounds with AC50 equal or less than 10 uM are considered active. Format: functional.
In series [2] the target is Luciferin 4-monooxygenase (Photinus pyralis, UniProt P08659). The series can be described thus: inhibition of purified Photinus pyralis luciferase – biochemical, luminescence, dose response (AID 1891).
A short description of series [3]: Luminescence Cell-Based Dose Confirmation HTS to Identify Inhibitors of Platelet Dense Granule Release. [Related pubchem assays: 1663 (Primary HTS), 1678 (Summary of Project)]. Type of series: functional.
Series [4] can be described thus: Trypanosoma cruzi growth suppression in host cells – NIH3T3 host cells, beta-gal luminescence, confirmation (AID 2044).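 Note: intracellular parasites grown in NIH/3T3 mouse fibroblasts as host cells; luminescent beta-galactosidase reporter signal from transgenic T. cruzi replicating inside host cells; inhibitors lower the luminescence signal.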 Type of series: functional, cell-based.
Series [5] is described as follows: NIH3T3 cell viability loss – ATP luminescence, mouse fibroblasts, counter-screen, dose response (AID 2010).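 Note: cells exposed to compound for about 90 hours before reading.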 Format: functional, cell-based.

Where “and” joins values, the source holds several entries; their conditions need not be identical. Equal values may be shown once. Calls of active or inactive are those of the source.

Sequence of Cytochrome P450 2C19 (P33261 whole entry): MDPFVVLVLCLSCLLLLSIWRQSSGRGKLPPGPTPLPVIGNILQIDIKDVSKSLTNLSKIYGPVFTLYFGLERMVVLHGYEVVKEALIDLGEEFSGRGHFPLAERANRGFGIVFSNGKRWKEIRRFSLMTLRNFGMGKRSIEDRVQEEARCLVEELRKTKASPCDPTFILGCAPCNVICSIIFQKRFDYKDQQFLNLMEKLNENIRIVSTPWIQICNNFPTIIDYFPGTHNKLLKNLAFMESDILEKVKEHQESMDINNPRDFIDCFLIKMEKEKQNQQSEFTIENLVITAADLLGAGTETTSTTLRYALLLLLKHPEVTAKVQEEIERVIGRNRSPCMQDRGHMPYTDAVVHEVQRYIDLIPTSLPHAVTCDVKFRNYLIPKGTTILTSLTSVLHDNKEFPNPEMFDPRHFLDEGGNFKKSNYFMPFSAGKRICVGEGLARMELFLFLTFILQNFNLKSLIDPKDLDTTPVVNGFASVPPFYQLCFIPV
Sequence of Cytochrome P450 2D6 (P10635 whole entry): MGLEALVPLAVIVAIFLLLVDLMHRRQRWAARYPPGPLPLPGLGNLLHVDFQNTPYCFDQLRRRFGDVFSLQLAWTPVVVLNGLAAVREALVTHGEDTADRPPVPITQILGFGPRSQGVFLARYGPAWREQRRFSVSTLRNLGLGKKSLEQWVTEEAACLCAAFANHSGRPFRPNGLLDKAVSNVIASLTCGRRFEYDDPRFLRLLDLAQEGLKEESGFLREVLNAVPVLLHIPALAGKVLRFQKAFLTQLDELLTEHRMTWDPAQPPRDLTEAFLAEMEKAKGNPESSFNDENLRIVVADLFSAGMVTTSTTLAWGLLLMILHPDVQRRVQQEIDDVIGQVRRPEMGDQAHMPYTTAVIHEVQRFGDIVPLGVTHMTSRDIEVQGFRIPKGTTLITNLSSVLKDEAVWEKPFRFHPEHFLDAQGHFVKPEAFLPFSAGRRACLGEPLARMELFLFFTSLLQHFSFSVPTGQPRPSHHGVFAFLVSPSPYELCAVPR
Sequence of Cytochrome P450 3A4 (P08684 whole entry): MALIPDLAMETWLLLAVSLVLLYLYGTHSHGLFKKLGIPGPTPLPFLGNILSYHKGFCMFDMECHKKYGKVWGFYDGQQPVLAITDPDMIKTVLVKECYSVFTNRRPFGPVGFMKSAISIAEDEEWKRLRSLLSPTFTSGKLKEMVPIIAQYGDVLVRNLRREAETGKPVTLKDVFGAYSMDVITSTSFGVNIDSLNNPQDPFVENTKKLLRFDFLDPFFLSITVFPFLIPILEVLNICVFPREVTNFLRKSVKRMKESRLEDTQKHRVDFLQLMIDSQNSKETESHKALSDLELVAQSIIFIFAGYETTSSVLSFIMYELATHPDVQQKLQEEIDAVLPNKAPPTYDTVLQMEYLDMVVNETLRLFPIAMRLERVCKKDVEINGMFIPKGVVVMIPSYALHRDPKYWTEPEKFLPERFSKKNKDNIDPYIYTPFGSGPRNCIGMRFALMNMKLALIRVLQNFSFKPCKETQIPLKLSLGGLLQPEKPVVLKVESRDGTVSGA
Sequence of Cytochrome P450 2C9 (P11712 whole entry): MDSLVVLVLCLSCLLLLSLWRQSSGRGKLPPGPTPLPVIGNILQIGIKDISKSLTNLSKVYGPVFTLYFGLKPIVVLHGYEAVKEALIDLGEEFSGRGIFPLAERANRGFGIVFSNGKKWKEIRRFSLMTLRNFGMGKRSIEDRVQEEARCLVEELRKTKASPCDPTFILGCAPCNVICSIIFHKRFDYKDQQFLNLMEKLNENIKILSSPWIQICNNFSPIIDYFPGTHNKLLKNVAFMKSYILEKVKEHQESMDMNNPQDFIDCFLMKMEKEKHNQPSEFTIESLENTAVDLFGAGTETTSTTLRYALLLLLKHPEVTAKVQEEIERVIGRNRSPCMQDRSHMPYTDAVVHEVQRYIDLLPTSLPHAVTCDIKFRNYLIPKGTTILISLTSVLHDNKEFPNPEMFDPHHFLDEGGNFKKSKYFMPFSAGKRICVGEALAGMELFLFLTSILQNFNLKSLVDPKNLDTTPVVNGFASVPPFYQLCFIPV
Sequence of Luciferin 4-monooxygenase (P08659 whole entry): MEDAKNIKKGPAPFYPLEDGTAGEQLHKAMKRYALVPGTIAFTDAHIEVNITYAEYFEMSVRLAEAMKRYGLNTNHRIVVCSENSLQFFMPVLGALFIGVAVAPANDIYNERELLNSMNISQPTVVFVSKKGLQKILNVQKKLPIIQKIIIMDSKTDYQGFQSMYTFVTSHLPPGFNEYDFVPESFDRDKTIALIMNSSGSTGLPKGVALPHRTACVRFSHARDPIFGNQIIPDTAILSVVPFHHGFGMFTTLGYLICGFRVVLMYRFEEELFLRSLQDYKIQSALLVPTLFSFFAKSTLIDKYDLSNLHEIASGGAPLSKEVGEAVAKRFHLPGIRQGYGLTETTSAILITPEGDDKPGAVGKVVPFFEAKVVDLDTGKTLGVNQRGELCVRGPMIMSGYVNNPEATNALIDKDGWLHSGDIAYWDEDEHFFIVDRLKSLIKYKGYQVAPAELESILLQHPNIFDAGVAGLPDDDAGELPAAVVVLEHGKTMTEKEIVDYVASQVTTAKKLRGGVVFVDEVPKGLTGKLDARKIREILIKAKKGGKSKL

With `CCCC[P+](CCCC)(CCCC)Cc1ccc(NC(=O)[C@@H](Cc2ccc3ccccc3c2)N=C(NC2CCCCC2)NC2CCCCC2)cc1`, on Cytochrome P450 3A4, the AC50 is 25.1 µM (inconclusive).

On to `CCOC(=O)c1c(-c2ccc(C)o2)csc1NC(=O)COC(=O)c1ccc(NC(N)=O)cc1`, for which the values for the EC50 (with Streptococcus; in [1]; on Streptokinase A) were 68 µM (active), 1.75 µM (active) and 49.5 µM (active), respectively.

For `COc1ccc2[nH]cc(CCNc3ccnc(-c4ccoc4)n3)c2c1`, the concentration at half-maximal activity (AC50) at Cytochrome P450 2C9 is 0.794 µM (inconclusive).

In the case of `COc1cc(C[C@H](C)N)c(OC)cc1I`, the concentration at half-maximal activity (AC50) at Cytochrome P450 3A4 is 1.58 µM (inconclusive) and 31.6 µM (inconclusive).

Consider `Cc1cc(C)c(S(=O)(=O)N2CCCCC2)c(C)c1N(C)S(=O)(=O)c1ccccc1`, for which, at Cytochrome P450 3A4, the AC50 was 1.12 µM (inconclusive).

Turning to `COc1ccc(-c2nc3cnc(OC)nc3n(Cc3cccs3)c2=O)cc1`, the AC50 at Cytochrome P450 2C9 was 5.01 µM (inconclusive); at Cytochrome P450 2D6, 7.94 µM (inconclusive).

As to `O=C(NCC(=O)N(c1ccccc1)C(C(=O)NC1CCCC1)c1cccnc1)c1cccs1` (stereo not drawn), the AC50 at Cytochrome P450 2C9 was 17.8 µM (inconclusive); on Cytochrome P450 2C19 (read-out: AC50) it was 15.8 µM (inconclusive).

As for `Cc1ccc(OCC(O)CNC(=O)c2ccccc2C(=O)O)cc1` (stereo not drawn), on Cytochrome P450 2C9, the AC50 was 0.00562 µM (inconclusive).

Turning to `CCCN1CCc2cc(O)cc3c2[C@H]1Cc1ccc(O)c(O)c1-3`, the results for the AC50 on Cytochrome P450 2C9 and on Cytochrome P450 2D6 were 39.8 µM (inconclusive) and 15.8 µM (inconclusive), respectively.

Take `CCCCNC(=O)c1onc(CSc2ccc(C(C)C)cc2)c1C(=O)O`: the EC50 in the series on Streptococcus is > 150 µM (not active); in series [1], 3.81 µM (active); at Streptokinase A, 2.28 µM (active).

With `COc1cccc([C@@H]2Oc3ccc(Br)cc3C(=O)[C@H]2O)c1`, the AC50 on Cytochrome P450 3A4 was 6.31 µM (inconclusive).

`c1ccc(-n2c3ccccc3c3ccccc32)cc1`: the EC50 in the series on Streptococcus is > 150 µM (not active); in series [1] it was 6.43 µM (active); at Streptokinase A, > 150 µM (not active).

On to `O=C(CSc1nnc(NC(=O)c2cccc(F)c2)s1)NCC1CCCO1` (stereo not drawn), for which the EC50 (in the series on Streptococcus; in series [1]; on Streptokinase A) was > 150 µM (not active) in each case.

Consider `CC(=O)Nc1ccc(N2C(=O)CSC2c2c(F)cccc2Cl)cc1` (stereo not drawn), for which the AC50 at Cytochrome P450 3A4 was 22.4 µM (inconclusive); at Cytochrome P450 2C19 (read-out: AC50), 39.8 µM (inconclusive).

As for `Cc1cccc(C)c1NC(=O)C(c1ccccc1)N1CCC1=O` (stereo not drawn), the AC50 on Cytochrome P450 3A4 was 25.1 µM (inconclusive); on Cytochrome P450 2C19 (read-out: AC50), 20 µM (inconclusive).

As for `Cc1ccc(/C=C/C(=O)Nc2ccccc2C(N)=O)cc1`, the results for the EC50 in [2] and in series [3] were 3.26 µM (active) and 22.3 µM (active), respectively.

Regarding `Cc1ccc(S(=O)(=O)N2CCCCC2)cc1NC(=O)CN1C(=O)CN(C)C1=O`, the EC50 (in the series on Streptococcus; in [1]; at Streptokinase A) was > 150 µM (not active) each time.

With `CCCCNC(=O)C(=O)NC(C)CCc1ccccc1` (stereo not drawn), at Cytochrome P450 2C9, the AC50 is 17.8 µM (inconclusive).

With `COc1ccc(CN2CCNC(=O)C2CC(=O)NCC(C)(C)N2CCOCC2)cc1C` (stereo not drawn), the EC50 in series [2] and in series [3] was > 112 µM (not active) in each case.

Regarding `Cc1noc(C)c1C(=O)Nc1ccc2ccccc2c1`, the EC50 (with Streptococcus; in [1]; at Streptokinase A) was > 150 µM (not active) each time.

On to `Cc1ccc(CNC(=O)C2CCC(=O)N2C2CCCCC2)cc1` (stereo not drawn), for which the AC50 at Cytochrome P450 2C9 is 7.08 µM (inconclusive).

As to `O=C1NC(=O)/C(=C\c2ccc(OCc3ccccc3)cc2)S1`, the values for the EC50 (in the series on Streptococcus; in [1]; on Streptokinase A) were > 150 µM (not active), 52.8 µM (active) and > 50 µM (not active), respectively.

For `CN=C(S)NNC(=O)c1sccc1OCc1ccc(C)cc1`, at Cytochrome P450 3A4, the AC50 is 15.8 µM (inconclusive).

As for `CCOC(=O)c1cnc2c(C#N)c(C)nn2c1-c1ccccc1`, the figures for the EC50 in series [2] and in series [3] were > 112 µM (not active) and 54.1 µM (active), respectively.

On to `CCc1cc2c(COC(=O)c3cccc(NS(C)(=O)=O)c3)cc(=O)oc2cc1O`, for which the results for the EC50 (in the series with Streptococcus; in series [1]; on Streptokinase A) were 100 µM (active), 6.8 µM (active) and > 150 µM (not active), respectively.

For `Cc1cc(N)ccc1NC(=O)c1ccccc1`, the AC50 at Cytochrome P450 2C9 was 0.0224 µM (inconclusive); at Cytochrome P450 2C19 (read-out: AC50), 20 µM (inconclusive).

For the compound `Cc1cccc(CNc2ncnc3ccc(-c4ccc(C(=O)N(C)C)cc4)cc23)c1`, the AC50 on Cytochrome P450 2C9 was 0.794 µM (inconclusive); at Cytochrome P450 2D6, 25.1 µM (inconclusive); at Cytochrome P450 2C19 (read-out: AC50), 39.8 µM (inconclusive).

On to `CCn1cc(CN2CCC(n3nccc3NC(=O)Cc3ccccc3)CC2)cn1`, for which the EC50 (in the series with Streptococcus; in [1]; on Streptokinase A) was > 150 µM (not active) throughout.

Take `O=c1[nH]c(=S)[nH]nc1Cc1ccccc1`: the values for the AC50 on Cytochrome P450 2C9 and on Cytochrome P450 2C19 were 39.8 µM (inconclusive) and “inconclusive”, respectively.

For the compound `CCN(CC)S(=O)(=O)c1ccc2c(c1)nc(CCC(=O)O)n2C`, the EC50 in series [2] and in series [3] was > 112 µM (not active) throughout.

With `CCOP(=O)(Cc1ccc(C(=O)CC)o1)OCC`, the EC50 (in the series on Streptococcus; in series [1]; on Streptokinase A) was > 150 µM (not active) in each case.

In the case of `Cc1c(NC(=O)/C=C/C(=O)O)cccc1[N+](=O)[O-]`, the values for the AC50 on Cytochrome P450 2C9 and on Cytochrome P450 2C19 (read-out: AC50) were 28.2 µM (inconclusive) and 15.8 µM (inconclusive), respectively.

For `Oc1oc(-c2ccccc2)nc1/C=N/c1ccccc1`, the AC50 at Cytochrome P450 3A4 was 25.1 µM (inconclusive).

For the compound `Nc1ccn(-c2ccc(Cl)cc2)c(=O)c1`, the EC50 in [2] and in series [3] was > 112 µM (not active) throughout.

Regarding `CCN(CC)CCn1c(=S)[nH]c2cc3c(cc2c1=O)OCO3`, the figures for the concentration at half-maximal activity (AC50) on Cytochrome P450 3A4 and on Cytochrome P450 2C19 (read-out: AC50) were 14.1 µM (inconclusive) and 39.8 µM (inconclusive), respectively.

On to `CN(Cc1ccco1)c1nc(-c2cccc(C#N)c2)nc2ccccc12`, for which the AC50 at Cytochrome P450 2C9 was 1 µM (inconclusive).

As to `O=C(NNC1=Nc2cccc3cccc1c23)c1ccc(Br)cc1`, the EC50 in series [4] was 1.12 µM (active); in the series on Streptococcus, 10.6 µM (active); in series [5], 6.29 µM (active); in [1], 0.324 µM (active); at Streptokinase A it was > 150 µM (not active).

For `CCCn1nc2cc(C(=O)NCCc3ccc(C)cc3)ccc2c1OCC`, at Cytochrome P450 2C9, the AC50 is 39.8 µM (inconclusive).

The AC50 is the concentration giving half of the maximal activity seen. A word on the EC50: it is the concentration at which the effect is half-maximal.
